Assay results published in PMC11013143, “4-Chloroisocoumarins as Chlamydial Protease Inhibitors and Anti-Chlamydial Agents” (Molecules, 2024).

Tests used:
[1] = target: T1, CtHtrA (Chlamydia trachomatis serovar D, UniProt P18584); assay: CtHtrA protease inhibition assay; type: biochemical; conditions: for IC50: IC50 against CtHtrA; for Relative Potency against CtHtrA: [IC50 of control]/[IC50 test compound]
T1 construct: made in house; host or cells: E. coli BL21(DE3), pET22b
Method: The inhibitory activity of compounds 2a–g against CtHtrA was evaluated. […] As these compounds are reportedly covalent inhibitors of serine proteases, a true IC50 is unable to be calculated. Instead, the residual activity of the protease is monitored over time in response to a range of compound concentrations, and an IC50 value is interpolated from a dose–response curve (see Figures S2–S4 and Tables S1 and S2). This IC50 value is then compared to a positive control (JO146 was used for 2a–g, and 2g was used for 6a–h), giving the ‘relative potency’. This is the established method for assessing CtHtrA inhibitory potency. […] This effect may be due to depth restrictions within the S1 subpocket, as kinetic studies on the rates of protease inhibition in HLE were reduced by larger C-3 alkoxy substituents. Chain branching (iso-propyl and sec-butyl substituents) increased the activity, resulting in a 1.4-fold increase for 2e over 2b and a 2.8-fold improvement for 2g over 2c.
CtHtrA was expressed using an procedure adapted from the literature. Recombinant E. coli BL21(DE3) pET22b was grown in LB media containing 100 ug/mL ampicillin to an OD600 of 0.5-0.6 in 5 × 400 mL batches at 37 °C. Isopropyl β-D-1-thioglactopyranoside (1 M, 400 µL, 1 mM final concentration) was added to each flask and incubated at 30 °C with shaking at 150 rpm for an additional 2.5 h. The culture was centrifuged at 4000× g for 15 min at 4 °C, and the cell pellet was harvested and resuspended in lysis buffer (50 mM phosphate, 10 mM imidazole, 500 mM NaCl, 0.1% Triton X-100, 10% glycerol). Lysozyme was added to the suspended cells and was sonicated in 15 cycles of 15 s, with one minute between cycles while maintaining 4 °C, and then centrifuged at 8000× g for 20 min to remove any debris, retaining the supernatant for protein purification.
TALON® metal affinity resin (Takara cat no. 635652, 5 mL) was added to each lysate tube and washed sequentially with lysis buffer (2 × 45 mL) and stringency buffer (4 × 45 mL) and then eluted with elution buffer (2 × 5 mL), allowing incubations at 4 °C for 20 min per wash, and centrifuging at 2500× g and 4 °C between washes to pellet the resin. The eluates were dialyzed in Tris buffer (pH 7.0, 50 mM, 4 L) with magnesium chloride (20 mM) at 4 °C five times over 24 h, with a minimum of three hours per dialysis change. Protein expression and isolation were confirmed with SDS-PAGE Coomassie stained gel, which was examined for the band at the correct size, and a BCA assay to confirm purified protein concentration prior to use.
CtHtrA was added to 25 wells in a black 96-well plate (40–80 µL, 10 µL increments), to which Tris-HCl buffer (50 mM, pH 7.0 with 20 mM MgCl2) was added to bring the total volume to 90 µL for 10 wells and 85 µL for the remaining 15. JO146 (10 µM, 5 µL) was added to 5 wells and JO146 (1 µM, 5 µL) was added to another 5 wells, with DMSO (5 µL) being added to the remaining 5 as a control. The plate was incubated at 37 °C for 10 min before substrate (MCA-ENLHLPLPIIFK-DNP, 10 µL, 1 mg/mL, 50% isopropanol in buffer) was added and analyzed in a TECAN Infinite Pro M200 plate reader with an excitation wavelength of 340 nm and fluorescence measured at 405 nm with four reads per well at 60 s intervals. A minimum volume of CtHtrA granting a fluorescence change of 300 min^−1 was used for subsequent assay.
The determined appropriate volume of CtHtrA in buffer was added to a 96-well non-transparent black plate and diluted to 85 µL with buffer solution. Drug or control (5 µL) at a maximum of 20% DMSO/80% buffer was added to the appropriate well with DMSO controls, and the plate was incubated for 10 min to allow activation by the protein. MCA-ENLHLPLPIIFK-DNP (Mimotopes, Australia, 1 mg/mL, 10 µL) was added and immediately monitored on a TECAN M200 Infinite plate reader at 37 °C every 60 s for 30 min, using the same wavelengths as for the activity evaluation. […]

[2] = tested on: HEp-2 cells; assay: MTS cell viability assay, HEp-2 cells; type: cell-based, human; conditions: 24 h; for effect on HEp-2 cell viability: any tested concentration (31.25, 62.5, 125 µM)
Method: The cytotoxic effects of the 4-chloroisocoumarin compounds 2a–g and 6a–h (24 h) were tested against HEp-2 and McCoy B cells using the MTS cell viability assay. HEp-2 and McCoy B cells were selected, as these are routinely used for the cultivation of chlamydial species, and low cytotoxicity against host cells is required to evaluate the anti-chlamydial properties of a test compound [27].
HEp-2 (human epithelial type 2, CCL-23, ATCC®, Virginia, USA) or McCoy B (mouse fibroblast, CRL-1696, ATCC®) cells were grown to 80–100% confluence, and cell density was determined with a haemocytometer. Cells were then diluted to 1 × 10^5 cells/mL, and 100 µL was added to each well in a 96-well plate, with 3 wells left as controls. Cells were grown for 24 h, and the media was removed and then replaced with fresh media containing 0.1% DMSO and the drug for testing in triplicate. Drugs and cells were incubated for 24 h, and then 20 µL of MTS and PMS solution was added and then incubated for a further four hours. Absorbance was measured at 490 nm on a TECAN M200 Infinite plate reader and data were processed using Microsoft Excel^TM with the following equation to determine cell viability relative to DMSO controls. Cellviability%=AbsorbanceDrug−AbsorbanceDye/AbsorbanceDMSO−AbsorbanceDye

T1 sequence (P18584 17-497): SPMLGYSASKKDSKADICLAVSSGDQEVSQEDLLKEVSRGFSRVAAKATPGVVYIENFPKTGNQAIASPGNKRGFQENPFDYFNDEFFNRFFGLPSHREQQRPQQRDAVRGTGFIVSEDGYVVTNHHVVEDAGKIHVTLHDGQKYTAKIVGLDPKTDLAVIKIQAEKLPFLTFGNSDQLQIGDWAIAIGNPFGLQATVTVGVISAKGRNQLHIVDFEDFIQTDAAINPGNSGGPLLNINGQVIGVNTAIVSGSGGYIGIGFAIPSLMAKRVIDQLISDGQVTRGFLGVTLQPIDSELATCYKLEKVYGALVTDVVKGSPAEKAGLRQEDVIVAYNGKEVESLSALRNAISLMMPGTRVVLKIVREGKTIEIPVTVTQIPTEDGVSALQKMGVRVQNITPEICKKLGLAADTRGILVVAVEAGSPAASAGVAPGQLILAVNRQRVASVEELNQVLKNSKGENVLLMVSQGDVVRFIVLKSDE

Row | Compound | IC50 ([1]; Table S2, Batch 3, control 2g) [µM] | Relative Potency against CtHtrA ([1]; control 2g) | effect on HEp-2 cell viability [2] | also measured
1 | CCC(C)Oc1oc(=O)c2ccccc2c1Cl (racemic) [Compound 2g, (±)-3-sec-Butoxy-4-chloroisocoumarin] | 34.9 | – | – | Relative Selectivity ([1]; (relative CtHtrA potency)/(relative HLE potency)): 14.6; IC50 ([1]; Table S2, Batch 2, control JO146): 9.11 µM; IC50 ([1]; Table S2, Batch 4, control 2g): 32.3 µM; IC50 ([1]; Table S2, Batch 5, control 2g): 28 µM; Relative Potency against CtHtrA ([1]; control JO146): 6.58
2 | CCC(C)Oc1oc(=O)c2cc(OC)ccc2c1Cl (racemic) [Compound 6h, (±)-7-Methoxy-3-sec-butoxy-4-chloroisocoumarin] | – | 0.184 | did not significantly affect cell viability | IC50 ([1]; Table S2, Batch 5, control 2g): 152 µM
3 | CCC(C)Oc1oc(=O)c2cc(NC(=O)C(F)(F)F)ccc2c1Cl (racemic) [Compound 6d, (±)-N-(4-chloro-1-oxo-3-sec-butoxy-isochromen-7-yl)-2,2,2-trifluoroacetamide] | – | <0.001 | did not significantly affect cell viability | IC50 against CtHtrA ([1]; Table S2, Batch 4, control 2g): Not active
4 | CCC(C)Oc1oc(=O)c2cc(N(C)C)ccc2c1Cl (racemic) [Compound 6b, (±)-7-(Dimethylamino)-3-sec-butoxy-4-chloroisocoumarin] | 309 | 0.113 | not found to significantly impact cytotoxicity | –
5 | CCC(C)Oc1oc(=O)c2cc(N)ccc2c1Cl (racemic) [Compound 6a, (±)-7-Amino-4-chloro-3-sec-butoxyisocoumarin] | 107 | 0.326 | – | effect on HEp-2 cell viability / cytotoxicity ([2]; 125 µM): reduced cell viability slightly
6 | CCC(C)Oc1oc(=O)c2cc(NC(C)=O)ccc2c1Cl (racemic) [Compound 6c, (±)-N-(4-Chloro-1-oxo-3-sec-butoxy-isochromen-7-yl)acetamide] | 221 | 0.158 | did not significantly affect cell viability | –
7 | CCC(C)Oc1oc(=O)c2cc(I)ccc2c1Cl (racemic) [Compound 6e, (±)-3-sec-Butoxy-4-chloro-7-iodoisocoumarin] | – | <0.001 | – | IC50 against CtHtrA ([1]; Table S2, Batch 4, control 2g): Not active; cytotoxicity against HEp-2 cells ([2]; 62.5 µM): retained some cytotoxicity
